Molecular target: Protein kinase C beta type (Mus musculus) (UniProt P68404)
Assay: Inhibition of PKCbeta in mouse B cells assessed as reduction in IgM-stimulated cell proliferation

Sequence of Protein kinase C beta type (Mus musculus) (P68404 whole entry, looked up): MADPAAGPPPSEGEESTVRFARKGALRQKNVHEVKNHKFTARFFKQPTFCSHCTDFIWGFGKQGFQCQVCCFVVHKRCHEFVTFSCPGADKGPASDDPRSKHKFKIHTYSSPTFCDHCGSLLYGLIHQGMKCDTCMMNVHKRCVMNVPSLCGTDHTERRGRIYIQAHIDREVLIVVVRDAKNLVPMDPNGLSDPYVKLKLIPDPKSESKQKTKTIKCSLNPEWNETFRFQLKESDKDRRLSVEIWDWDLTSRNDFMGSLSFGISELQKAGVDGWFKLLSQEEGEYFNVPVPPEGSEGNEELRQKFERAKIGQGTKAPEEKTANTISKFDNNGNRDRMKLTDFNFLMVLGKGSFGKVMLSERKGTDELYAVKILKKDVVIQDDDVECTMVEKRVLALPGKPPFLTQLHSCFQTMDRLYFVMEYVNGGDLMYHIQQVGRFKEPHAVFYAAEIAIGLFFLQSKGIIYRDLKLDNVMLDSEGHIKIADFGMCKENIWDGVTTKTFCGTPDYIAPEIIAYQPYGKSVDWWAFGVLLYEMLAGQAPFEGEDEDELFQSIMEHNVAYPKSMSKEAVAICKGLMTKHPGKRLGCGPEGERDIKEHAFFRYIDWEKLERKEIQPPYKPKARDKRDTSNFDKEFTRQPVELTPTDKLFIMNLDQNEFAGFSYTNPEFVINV

SMILES: CN(C)Cc1ccc2ccc(Cl)c(C3=C(c4cn(C)c5ccccc45)C(=O)NC3=O)c2c1
- IC50: 296 nM

SMILES: CN1CCN(c2nc(C3=C(c4c[nH]c5ccccc45)C(=O)NC3=O)c3ccccc3n2)CC1 [Sotrastaurin]
- IC50: 234 nM
